Source: ChEMBL document CHEMBL5316342, “Structure-Based Design of Potent Iminosugar Inhibitors of Endoplasmic Reticulum α-Glucosidase I with Anti-SARS-CoV-2 Activity” (J Med Chem, 2023)
The source made the active and inactive calls. The rule behind the calls is not given here.

Legend:
SARS-CoV-2 [1] = test: Antiviral activity against SARS-CoV-2 USA-WA1/2020 infected in human A549-ACE2 cells assessed as reduction in viral burden measured upto 4 days by viral plaque assay; format: functional, organism-based; conditions: Severe acute respiratory syndrome coronavirus 2, USA-WA1/2020, A549-ACE2, 96 h
[2] = Cytotoxicity against human A549-ACE2 cells infected with SARS-CoV-2 USA-WA1/2020 assessed as reduction in cell viability at 25 uM measured for 3 days by WST-1 assay relative to control; format: toxicity, cell-based; conditions: a549-ace2, 72 h, time 3 day
[3] = Inhibition of C-terminal his6-tagged full length recombinant mouse Endoplasmic reticulum alpha-glucosidase 1 (59 to 834 residues) expressed in FreeStyle 293-F cells using trisaccharide as substrate preincubated for 60 mins followed by substrate addition and measured for 90 mins by Amplex Red assay
[4] = Inhibition of mouse recombinant alpha-glucosidase using 4-methylumbelliferyl-[…]-D-glucopyranoside as substrate preincubated for 60 mins followed by substrate addition and measured after 30 mins by fluorescence based analysis
[5] = Cytotoxicity against human A549-ACE2 cells infected with SARS-CoV-2 USA-WA1/2020 assessed as reduction in cell viability measured for 3 days by WST-1 assay; format: toxicity, cell-based; conditions: a549-ace2, 72 h, time 3 day
SARS-CoV-2 [6] = test: Antiviral activity against SARS-CoV-2 USA-WA1/2020 infected in human A549-ACE2 cells assessed as maximum reduction in viral burden up to 100 uM measured upto 4 days by viral plaque assay; format: functional; conditions: Severe acute respiratory syndrome coronavirus 2, time <= 4.0 day

Row | SMILES | EC50 (SARS-CoV-2 [1]) [nM] | Activity [2] [%] | IC50 [3] [nM] | IC50 [4] [nM] | CC50 [5] [nM] | Activity (SARS-CoV-2 [6])
1 | OC[C@@H]1[C@@H](O)[C@H](O)[C@@H](O)CN1CCCCCCNc1cc(-c2cccnn2)cc(C2CC2)c1 | 7860 | 100 | 103 | 12 | > 100000 | –
2 | C[C@@H]1CN(c2ccc(NCc3ccc(CN4C[C@H](O)[C@@H](O)[C@H](O)[C@H]4CO)cc3)c([N+](=O)[O-])c2)C[C@H](C)O1 | – | 51.5 | 1 | 4 | – | inactive
3 | Cc1cc(NCc2cccc(CN3C[C@H](O)[C@@H](O)[C@H](O)[C@H]3CO)n2)cc(-c2ccc[nH]2)c1 | – | 54.1 | 966 | > 100000 | – | inactive
4 | Cc1cc(NCc2cccc(CN3C[C@H](O)[C@@H](O)[C@H](O)[C@H]3CO)c2)cc(-c2ncccn2)c1 | – | 52.9 | 44 | 66500 | – | inactive
5 | [N-]=[N+]=Nc1ccc(NCCCCCCN2C[C@H](O)[C@@H](O)[C@H](O)[C@H]2CO)c([N+](=O)[O-])c1 | 580 | 100 | 155 | 10 | > 100000 | –
6 | O=[N+]([O-])c1cc(N2[C@@H]3CC[C@H]2COC3)ccc1NCc1ccc(CN2C[C@H](O)[C@@H](O)[C@H](O)[C@H]2CO)cc1 | – | 75 | < 1 | < 1 | 39800 | –
7 | Cc1cc(NCc2ccc(CN3C[C@H](O)[C@@H](O)[C@H](O)[C@H]3CO)cc2)cc(-c2cccnn2)c1 | – | 73.7 | 73 | 179 | – | inactive
8 | O=[N+]([O-])c1cc(N2C3CCC2COC3)ccc1NCCCCCCN1C[C@H](O)[C@@H](O)[C@H](O)[C@H]1CO | 1610 | 98.9 | 52 | 30 | > 100000 | –
9 | N#Cc1cc(NCc2cccc(CN3C[C@H](O)[C@@H](O)[C@H](O)[C@H]3CO)c2)cc(C2=COCCO2)c1 | – | 100 | 3 | 2670 | > 100000 | –
10 | COCCc1ccc(CCCCCN2C[C@H](O)[C@@H](O)[C@H](O)[C@H]2CO)cc1 | – | – | 1160 | 76 | – | –
11 | O=[N+]([O-])c1cc(N2CCOCC2)ccc1NCc1cccc(CN2C[C@H](O)[C@@H](O)[C@H](O)[C@H]2CO)c1 | – | 36.5 | 99 | 12800 | – | inactive
12 | CS(=O)(=O)c1cc(Br)cc(NCc2cccc(CN3C[C@H](O)[C@@H](O)[C@H](O)[C@H]3CO)c2)c1 | – | 100 | 19 | 7920 | > 100000 | –
13 | [N-]=[N+]=Nc1ccc(NCCOC(=O)NCCN[C@H]2C[C@](O)(CO)[C@@H](O)[C@H](O)[C@H]2O)c([N+](=O)[O-])c1 | – | – | 1130 | – | – | –
14 | COCCCCCCCCCN1C[C@H](O)[C@@H](O)[C@H](O)[C@H]1CO.Cl | 3320 | 100 | – | – | > 100000 | –
15 | OC[C@@H]1[C@@H](O)[C@H](O)[C@@H](O)CN1CCCCCCCCc1ccco1 | 3360 | 95.7 | 139 | 35 | 35000 | –
16 | Cc1nc(-c2ccc(NCCCCCCN3C[C@H](O)[C@@H](O)[C@H](O)[C@H]3CO)c([N+](=O)[O-])c2)no1 | 440 | 100 | 99 | 3 | > 100000 | –

Row | SMILES | EC50 (SARS-CoV-2 [1]) [nM] | Activity [2] [%] | IC50 [3] [nM] | IC50 [4] [nM] | CC50 [5] [nM] | Activity (SARS-CoV-2 [6])
17 | OC[C@@H]1[C@@H](O)[C@H](O)[C@@H](O)CN1CCc1ccc(CCNc2cc(O)cc(-c3ncon3)c2)cc1 | – | 83.8 | 1010 | 295 | > 100000 | –
18 | O=[N+]([O-])c1cc(-c2ccnc(N3CCOCC3)n2)ccc1NCCCCCCN1C[C@H](O)[C@@H](O)[C@H](O)[C@H]1CO | – | 58.6 | < 1 | < 1 | – | inactive
19 | O=[N+]([O-])c1cc(NCCCCCCN2C[C@H](O)[C@@H](O)[C@H](O)[C@H]2CO)cc(-c2ccncc2)c1 | – | 87.2 | 1 | < 1 | 54200 | –
20 | CS(=O)(=O)c1cc(NCc2ccc(CN3C[C@H](O)[C@@H](O)[C@H](O)[C@H]3CO)cc2)cc(-c2cccnn2)c1 | – | 99.2 | 21 | 114 | > 100000 | –
21 | O=[N+]([O-])c1cc(-n2cccn2)ccc1NCCCCCCN[C@H]1C[C@](O)(CO)[C@@H](O)[C@H](O)[C@H]1O | – | 85.6 | – | – | > 100000 | –
22 | CS(=O)(=O)c1cc(NCc2cccc(CN3C[C@H](O)[C@@H](O)[C@H](O)[C@H]3CO)c2)cc(-c2ccccc2)c1 | – | 40.8 | 17 | 4600 | – | inactive
23 | OC[C@@H]1[C@@H](O)[C@H](O)[C@@H](O)CN1Cc1ccc(CNc2ccc(N3CCOCC3)cc2)cc1 | – | 97.6 | 122 | 1580 | > 100000 | –
24 | Cc1cc(-c2ccco2)ccc1NCc1ccc(CN2C[C@H](O)[C@@H](O)[C@H](O)[C@H]2CO)cc1 | > 25000 | 82.6 | < 1 | 318 | 29500 | –
25 | CCCCN[C@H]1C[C@](O)(CO)[C@@H](O)[C@H](O)[C@H]1O | – | – | 29500 | – | – | –
26 | COCCCCCCCCCN1C[C@H](O)[C@@H](O)[C@H](O)[C@H]1CO | – | – | 537 | 68 | – | –
27 | O=[N+]([O-])c1cc(-c2noc(C3CCC3)n2)ccc1NCCCCCCN1C[C@H](O)[C@@H](O)[C@H](O)[C@H]1CO | 720 | 100 | 11 | < 1 | 40700 | –
28 | [N-]=[N+]=Nc1ccc(NCCc2cncc(CCN3C[C@H](O)[C@@H](O)[C@H](O)[C@H]3CO)n2)c([N+](=O)[O-])c1 | – | 38.8 | 94 | 3 | – | inactive
29 | OC[C@@H]1[C@@H](O)[C@H](O)[C@@H](O)CN1CCc1ccc(CCNc2cc(O)cc(-c3cccnn3)c2)cc1 | – | 93.5 | 211 | < 1 | > 100000 | –
30 | Cc1nc2cc(-c3ncccn3)ccc2n1CCCCCCN1C[C@H](O)[C@@H](O)[C@H](O)[C@H]1CO | 12200 | 80.8 | 78 | 194 | > 100000 | –
31 | O=[N+]([O-])c1cc(-c2ccccc2)ccc1NCCCCCCN1C[C@H](O)[C@@H](O)[C@H](O)[C@H]1CO | 420 | 100 | 57 | < 1 | > 100000 | –
32 | O=[N+]([O-])c1cc(-n2nccn2)ccc1NCCCCCCN[C@H]1C[C@](O)(CO)[C@@H](O)[C@H](O)[C@H]1O | – | – | 47 | < 1 | – | –
